Tests used:
[1] = Stability of pilocarpine nitrate in the release medium; assay type: physicochemical; details: over a period of one week
Experimental: Before running the release studies, the stability of PCN in the release medium was tested by monitoring the changes in the concentration of a prepared stock solution of PCN in each of them over a period of one week.

[2] = In vitro hydrolytic degradation of poly(diol-tricarballylate) elastomers in PBS (pH 7.4); assay type: physicochemical
Experimental: In order to examine the influence of chain length on the degradation rate and the changes in the mechanical properties of the elastomer during the in vitro degradation, four different elastomers, based on varying chain lengths of alkylene diol (C6-C12), were prepared and tested. FIGS. 21a and 21b show the weight loss and water absorption data for the four prepared elastomers.
Young's modulus (E) and the ultimate tensile stress (σ) decreased in a nearly linear fashion with time as indicative of zero-order degradation mechanism. This linear decrease was observed regardless of the network compositions, the crosslinking density and the initial E and σ of the elastomers. […] No significant change in the ultimate elongation was found up to 12 weeks of the in vitro degradation time. […] It is only with surface erosion degradation pattern that the elastomers can maintain their mechanical properties unchanged^41. […] The above observations illustrates that the changes in the mechanical properties of these networks took place in two stages. The first stage was characterized by a rapid mechanical weakening (rapid decrease in E and a) which lasted for up to 4 weeks. […] This is in correlation with the trend noted for the weight loss and water absorption reported above (FIG. 21).
Through a linear regression of the zero-order degradation kinetics of the data in FIGS. 23a and 23b using equations (1) & (2), the rate constants were calculated and are listed in Table 1. Et=E0−KEt. (1) σt=σ0−Kσt. (2) In equations 1 & 2, t denoted the immersion time (in weeks) in PBS. The values of E0 and σ0 corresponded to the intercepts obtained from extrapolating the zero-order fitted line. Kσ and KE represented the zero-order degradation constants for […].

| Compound | Change in concentration of stock solution in the release medium [1] | KE (zero-order degradation constant, Young's modulus) [2] [MPa/week] | Kσ (zero-order degradation constant, ultimate tensile stress) [2] [MPa/week] |
| --- | --- | --- | --- |
| CC[C@@H]1C(=O)OC[C@@H]1Cc1cncn1C [PN, Pilocarpine Nitrate] | no significant changes from its initial concentration |  |  |
| poly(1,10 decane diol-co-tricarballylate) [PDTC] |  | 0.0237 | 0.0114 |
| poly(1,12 dodecane diol-co-tricarballylate) [PDDTC] |  | 0.0080 | 0.0018 |
| poly(1,8 octane diol-co-tricarballylate) [POTC] |  | 0.0301 | 0.0124 |
